Results reported in patent US9834527B2, “Macrocyclic urea derivatives as inhibitors of TAFIa, their preparation and their use as pharmaceuticals” (SANOFI, priority 2013, dated 2017).
Where two headings read alike, the source gives them in different places.

Assays:
TAFIa [1] = molecular target: T1, TAFIa (Homo sapiens, UniProt Q96IY4); test: TAFIa inhibition (Actichrome plasma TAFI Activity Kit, 15 minutes pre-incubation); format: biochemical; details: 15 minutes pre-incubation at room temperature
T1 construct: purchased American Diagnostica 874TAFIA
T1 sequence (Q96IY4 115-423): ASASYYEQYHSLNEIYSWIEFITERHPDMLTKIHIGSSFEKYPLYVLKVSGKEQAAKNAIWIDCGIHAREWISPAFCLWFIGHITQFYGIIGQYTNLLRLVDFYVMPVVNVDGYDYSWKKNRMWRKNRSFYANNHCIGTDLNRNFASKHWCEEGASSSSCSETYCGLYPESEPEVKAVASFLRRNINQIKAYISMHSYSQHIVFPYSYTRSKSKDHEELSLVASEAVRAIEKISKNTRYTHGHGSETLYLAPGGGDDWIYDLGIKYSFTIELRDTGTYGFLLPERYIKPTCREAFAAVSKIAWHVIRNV
Procedure: The prepared substances were tested for TAFIa inhibition using the Actichrome plasma TAFI Activity Kit from American Diagnostica (Pr. No. 874). This entailed adding 28 μl of assay buffer (20 mM Hepes, 150 mM NaCl, pH 7.4) and 10 μl of TAFIa (American Diagnostica Pr. No. 874TAFIA; 2.5 μg/ml) to 2 μl of 2.5 mM DMSO solution of the substance and incubating in a 96 half-well microtiter plate at room temperature for 15 minutes. The enzyme reaction was started by adding 10 μl of TAFIa developer (prediluted 1:2 with assay buffer). The time course of the reaction was followed at 420 nm in a microtiter plate reader (SpectraMax plus 384; Molecular Devices) for 15 minutes.
The IC50 values were calculated from the averaged values (duplicate determination) of serial dilutions of the substance with the aid of the Softmax Pro software (version 4.8; Molecular Devices).

TAFIa [2] = molecular target: T1, TAFIa; test: TAFIa inhibition at variable preincubation times; format: biochemical; details: for behaviour of the coefficient of IC50s with increasing pre-incubation time: increasing pre-incubation time (0 to 30 min)
Procedure: The prepared substances were tested for TAFIa inhibition using the Actichrome plasma TAFI Activity Kit from American Diagnostica (Pr. No. 874). This entailed adding 28 μl of assay buffer (20 mM Hepes, 150 mM NaCl, pH 7.4) and 10 μl of TAFIa (American Diagnostica Pr. No. 874TAFIA; 2.5 μg/ml) to 2 μl of 2.5 mM DMSO solution of the substance and incubating in a 96 half-well microtiter plate at room temperature for variable pre-incubation times (0, 5, 15 and 30 minutes). The enzyme reaction was started by adding 10 μl of TAFIa developer (prediluted 1:2 with assay buffer). The time course of the reaction was followed at 420 nm in a microtiter plate reader (SpectraMax plus 384; Molecular Devices) for 15 minutes.
The IC50 values were calculated from the averaged values (duplicate determination) of serial dilutions of the substance with the aid of the Softmax Pro software (version 4.8; Molecular Devices). The coefficient of IC50 values was determined by IC50 value at 0 min over IC50 value at x minutes, wherein x can be 0, 5, 15 or 30 minutes of pre-incubation time.

[3] = example compounds, read-out: IC50

Compound | IC50 (TAFIa [1]; [3]) | behaviour of the coefficient of IC50s with increasing pre-incubation time (TAFIa [2]) | Coefficient of IC50s (IC50 value at 0 min/IC50 value at x min preincubation time) (TAFIa [2]; pre-incubation time 0 min) | Coefficient of IC50s (IC50 value at 0 min/IC50 value at x min preincubation time) (TAFIa [2]; pre-incubation time 5 min) | Coefficient of IC50s (IC50 value at 0 min/IC50 value at x min preincubation time) (TAFIa [2]; pre-incubation time 15 min) | Coefficient of IC50s (IC50 value at 0 min/IC50 value at x min preincubation time) (TAFIa [2]; pre-incubation time 30 min) | IC50 (TAFIa [1]; comparison examples according to WO2009146802, read-out: IC50 of Comparison examples)
CC(C)[C@H]1COCCCCOc2ccc(cc2)C[C@@H](NC(=O)N[C@@](C)(Cc2ccc(N)nc2)C(=O)O)C(=O)N1 [Example 1, (S)-3-(6-Amino-pyridin-3-yl)-2-[3-((9S,12R)-9-isopropyl-11-oxo-2,7-dioxa-10-aza-bicyclo[12.2.2]octadeca-1(17),14(18),15-trien-12-yl)-ureido]-2-methyl-propionic acid] | 0.3 nM | – | – | – | – | – | –
CC(C)[C@H]1COCCCCOc2ccc(cc2)C[C@@H](NC(=O)N[C@@](C)(C[C@H]2C[C@H](N)C2)C(=O)O)C(=O)N1 [Example 2, (S)-3-trans-(3-Amino-cyclobutyl)-2-[3-((9S,12R)-9-isopropyl-11-oxo-2,7-dioxa-10-aza-bicyclo[12.2.2]octadeca-1(17),14(18),15-trien-12-yl)-ureido]-2-methyl-propionic acid] | 0.3 nM | increases | 1 | 2.9 | 5.8 | 7.7 | –
CC(C)[C@H]1COCCCCOc2ccc(cc2)C[C@@H](NC(=O)N[C@@](C)(C[C@@H]2CC[C@@H](N)C2)C(=O)O)C(=O)N1 [Example 3, (S)-3-((1R,3R)-3-Amino-cyclopentyl)-2-[3-((9S,12R)-9-isopropyl-11-oxo-2,7-dioxa-10-aza-bicyclo[12.2.2]octadeca-1(17),14(18),15-trien-12-yl)-ureido]-2-methyl-propionic acid] | 1 nM | – | – | – | – | – | –
CC(C)[C@H]1COCCCCOC[C@@H](NC(=O)N[C@@](C)(Cc2ccc(N)nc2)C(=O)O)C(=O)N1 [Example 4, (S)-3-(6-Amino-pyridin-3-yl)-2-[3-((3S,6R)-3-isopropyl-5-oxo-1,8-dioxa-4-aza-cyclododec-6-yl)-ureido]-2-methyl-propionic acid] | 1 nM | – | – | – | – | – | –
CC(C)[C@H]1COCCCCOc2ccc(cc2)C[C@@H](NC(=O)N[C@@H](C[C@H]2C[C@H](N)C2)C(=O)O)C(=O)N1 [reference compound] | – | stays nearly constant in time | 1 | 0.5 | 1.3 | 1 | 4 nM
